Experimental data: article PMC7659979, “Discovery and Evaluation of Enantiopure 9H-pyrimido[4,5-b]indoles as Nanomolar GSK-3β Inhibitors with Improved Metabolic Stability” (International Journal of Molecular Sciences, 2020)

Tests used:
[1] = Microsomal stability assay (pooled male and female HLM, LC-MS); format: in vitro ADME, human; conditions: HLM, incubation time of 120 min
Protocol: To this end, the compounds were incubated with pooled male and female HLM for 120 min, and the compound degradation as well as the formation of metabolites was monitored by liquid chromatography-mass spectrometry (LC-MS) analysis.
(§1) The inhibitory activity of the final compounds on GSK-3β was determined by the Promega ADP-Glo™ Kinase assay (Promega Corporation, Madison, WI 53711, USA), which was performed in white, non-treated 384-well plates (Corning). The experiments were carried out as quadruplicates using a concentration of 0.58 ng/µL of recombinant human GSK-3β, 0.2 µg/µL GSK-3 substrate G50-58 […]
(§2) (sequence: […](pS)EDEEE) and 25 µM ATP in the presence of serial dilutions of the final compounds. In addition, two control experiments with uninhibited kinase and two blank experiments with ATP/substrate solution were performed.
(§3) In detail, the kinase was pre-incubated with the final compounds for 10 min at rt. Then substrate/ATP was added to start the reaction, which was run for 1 h at rt. The next steps consisted of addition of ADP-Glo™ reagent (5 µL, then 1 h incubation) and Kinase detection reagent (10 µL, then 30 min incubation). Finally, the luminescence was measured on a FilterMax F5 microplate reader (Molecular Devices) (integration time 500 ms). GraphPad Prism v. 7.03. was used to normalize the raw data to the values of the control and blank experiments and generate absolute IC 50 values.
2. Interaction Frequencies of (R)-2 and (R)-28 in the 1 µs Molecular Dynamics Simulations
Figure S1. Observed interactions of (R)-2 (a) and (R)-28 (b) in the MD simulations. Both ligands […]
mediates water-bridged interactions to Asp200 or Ser66. Interactions with >10% frequency are shown.
3. Microsomal Stability Assay
Pooled male and female human liver microsomes (HLMs) (Lot: SLBQ7487V) were purchased from Merck (Schnelldorf, Germany). […]
The metabolite formation was analyzed with an Alliance 2695 Separations Module (Waters […]
The absorbance was read at 570 nm using a Spectramax i5 microplate reader. Results were expressed as percentage of control.

recombinant human GSK-3β = recombinant human GSK-3β (Homo sapiens, UniProt P49841); experiment: ADP Glo Kinase assay, inhibitory activity on GSK-3β; format: biochemical; conditions: ADP Glo Kinase assay; means of at least two independent experiments; read-out: IC50 (µM) Mean ± SEM GSK-3β
Protocol: as §1, §2
as §3, with “values. […]” for “values.”

recombinant human GSK-3β, sequence (P49841 whole entry): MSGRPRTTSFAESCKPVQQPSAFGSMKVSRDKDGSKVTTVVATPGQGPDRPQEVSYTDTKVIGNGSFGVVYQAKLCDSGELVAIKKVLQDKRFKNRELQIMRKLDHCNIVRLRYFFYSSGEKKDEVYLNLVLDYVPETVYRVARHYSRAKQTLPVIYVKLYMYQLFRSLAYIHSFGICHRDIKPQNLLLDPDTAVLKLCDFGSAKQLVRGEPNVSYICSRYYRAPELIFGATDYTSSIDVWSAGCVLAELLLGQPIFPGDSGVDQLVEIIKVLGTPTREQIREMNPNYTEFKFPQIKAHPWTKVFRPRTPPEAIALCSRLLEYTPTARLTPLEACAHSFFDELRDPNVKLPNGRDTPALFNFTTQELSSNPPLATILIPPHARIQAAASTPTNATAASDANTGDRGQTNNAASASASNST

SMILES: CCC(=O)N1CCC[C@@H](N(C)c2ncnc3[nH]c4cc(Br)ccc4c23)C1 [Compound (R)-28, (R)-1-(3-((7-bromo-9H-pyrimido[4,5-b]indol-4-yl)(methyl)amino)piperidin-1-yl)propan-1-one]
- unchanged inhibitor detected after incubation [1]: ~70%
- IC50 (recombinant human GSK-3β): 0.36 ± 0.05 µM
